# According to patent US20070249682A1, “Novel CD40:CD154 binding interruptor compounds and use thereof to treat immunological complications” (priority 2000, published 2007):
# Target: T1, TNF-α:TNFRp60 interaction (Homo sapiens, UniProt P01375)
# T1 construct: purchased R&D System
# Experiment: Binding assay (ELISA): compound inhibits binding of biotin-TNF-α to immobilized TNFRp60 (Example 8)
# Conditions: average value; read-out: IC50 for TNF-α:TNFRp60 binding interruption
# From the text: (§1) IC50, as used herein, is the concentration at which a compound interrupts the interaction of a protein and its receptor to 50% interaction in the assay shown in Example 7 (for interruption of CD40:CD154 interaction) and Example 8 (for interruption of TNF-α:TNFRp60 interaction). Examples of such protein and receptor pairs are CD40:CD154 and TNF-α:TNFRp60.
# Binding Assay to Assess whether a Compound Binds to TNF-α and Inhibits TNF-α/TNFRp60 Interaction
# 1) Ninety-six well plates of Nunc Maxisorp were coated with 100 μl/well of 0.6 ug/ml tumor necrosis factor receptor p60 (TNFRp60) (Browning, J. L.; Douglas, I.; Ngam-ek, A.; Bourdon, P. R.; Ehrenfels, B. N.; Miatkowski, K.; Zafari, M.; Yampaglia, A. M.; Lawton, P.; Meier, W.; Benjamin, C. P.; Hession, C. J. Immunol. 1995, 154, 33-46) in PBS, pH 7.2, covered with plate sealers (Costar, Cat. No. 3095) and stored overnight at 4° C.
# 2) The coated plates were shook out and blotted dry.
# 3) TNFRp60-coated plates were blocked with 300 μl per well of PBS (0.05% Tween-20, 1% BSA, made from media prep) at 4° C. for one hour. Plates were stored for 3 weeks at 4° C. […]
# 14) The plates were read within 30 minutes of adding stop reagent at […] by microplate reader (Molecular Devices Co.) […]
# Compounds that blocked TNF-α/TNFRp60 interaction prevented TNF-α from binding to immobilized TNFRp60 and gave a low absorbance reading. […]
# T1 sequence (P01375 77-233 limits assumed, species assumed): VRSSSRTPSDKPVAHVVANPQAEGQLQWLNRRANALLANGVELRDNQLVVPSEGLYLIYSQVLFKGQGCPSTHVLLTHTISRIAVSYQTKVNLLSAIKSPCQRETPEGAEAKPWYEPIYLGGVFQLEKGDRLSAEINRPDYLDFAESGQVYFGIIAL
row,SMILES,IC50
1,"O=C(Nc1cccc(S(=O)(=O)Nc2cc3ccccc3cc2C(=O)O)c1)Nc1cccc(S(=O)(=O)Nc2cc3ccccc3cc2C(=O)O)c1 [BIO-002108-00, reference compound]",> 125 µM

# Target: T2, CD40:CD154 interaction (Homo sapiens, UniProt P29965)
# T2 construct: made in house; host or cells: Pichia (CD40-Ig only)
# T2 sequence (P29965 116-261 limits assumed): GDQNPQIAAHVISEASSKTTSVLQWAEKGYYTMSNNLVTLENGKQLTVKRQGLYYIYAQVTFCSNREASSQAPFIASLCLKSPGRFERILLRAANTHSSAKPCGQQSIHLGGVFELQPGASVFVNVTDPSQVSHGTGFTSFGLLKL
# Experiment: Binding assay (ELISA): compound binds CD154 and inhibits binding of biotin-CD154 to immobilized CD40-Ig (Example 7)
# Conditions: compounds 12 and 14-21: 'considered to have' the IC50 range (not worded as 'shown'); read-out: IC50 for CD40:CD154 binding interruption
# From the text: as §1
# Binding Assay to Assess whether a compound Binds CD154 and Inhibits CD40:CD154 Interaction
# 1) Ninety-six well plates of Nunc Maxisorp were coated with 100 μl of 5-10 μg/ml human CD40-Ig produced in Pichia cells, (in PBS pH 7.2) per well, covered with plate sealers (Costar, Cat. No. 3095) and stored overnight at 4° C.
# 2) The CD40-Ig-coated plates were shook out and blotted dry.
# 3) The CD40-Ig-coated plates were blocked with 300 μl per well of PBS (0.05% Tween-20, 1% BSA, pH 7.2) at RT for one hour or in the refrigerator for up to 3 weeks.
# 4) The CD40-Ig-coated plates were washed 3× with PBS+0.05% Tween-20 pH 7.4 with plate washer at RT.
# 5) The plates were optionally blotted dry.
# 6) Primary Screening of compounds: • a. Compounds were titrated in 100 mM Hepes+0.005% BSA pH 7.2 in Titertube (Bio-Rad Laboratories) and 50 μl of titrated compounds was then added into each well of the plate. IC50 parameters: • One 7 point curve per compound was generated where each point was run in triplicate. […] Fifty μl/well of 0.07-1.6 μg/ml biotin-CD154 in 100 mM Hepes+0.005% BSA (pH 7.2) was added per well. Final concentration of biotin-CD154 was […]. It was mixed with compound in each well in the plate. • c. The plates were covered with plate sealer and incubated for one-hour at RT.
# 7) The plates were washed 3× with plate washer with PBS+0.05% Tween-20 (pH 7.4) at RT.
# 8) The plates were optionally blotted dry.
# 9) 100 μl of a 1/300,000 dilution of HRP-Strep/Avidin (Jackson Immuno Research Code3 #016-030-084) was added to each well. Dilution buffer was: PBS+0.05% Tween-20. The plates were covered with plate sealer and incubated for one hour at room temperature.
# 10) The plates were washed with plate washer 3× at RT.
# 11) The plates were optionally blotted dry.
# 12) 100 μl/well of TMB(1-component) (Kirkegarrd & Perry Labs, Prod #50-76-04) was added to each well and incubated at RT about 10 min.
# 13) 100 μl/well of 0.18M H2SO4 was added to stop reaction in the plates.
# 14) The plates were read within 30 minutes of stopping the reaction at […] on a microplate reader (Molecular Devices Co.).
# Compounds that bound to CD154 and blocked CD40:CD154 interaction prevented CD154 from binding to immobilized CD40-Ig and gave a low absorbance reading.
# • 1. Total reaction: Reaction well contained 50 μl of 100 mM Hepes/0.005% BSA (no test compound) • 2. Positive control: Reaction well contained 10 μl of 1 mg/ml 5c8 (anti-CD154 mAb) and 50 μl of 100 mM Hepes/0.005% BSA. • 3. Blank control: Reaction well contained 100 μl 100 mM Hepes/0.005% BSA. • 4. Compound control: Titration series in triplicate of BIO-002108-00.
row,SMILES,IC50
1,O=C(NC1CCc2ccccc21)c1cc(-c2cc(C(=O)NC(C(=O)O)C3CCCCC3)nc(C(=O)N3CCCC3CN3CCCC3)c2)cc(C(=O)N2CCCC2CN2CCCC2)n1 (stereo not shown) [Compound 12],50 to 125 µM
2,O=C(NCCCc1ccc(Br)cc1)c1cc(-c2cc(C(=O)N[C@H](C(=O)O)C3CCCCC3)nc(C(=O)N3CCC[C@H]3CN3CCCC3)c2)cc(C(=O)N2CCC[C@H]2CN2CCCC2)n1 [Compound 14],50 to 125 µM
3,O=C(NCCCCc1ccccc1)c1cc(-c2cc(C(=O)N[C@H](C(=O)O)C3CCCCC3)nc(C(=O)N3CCC[C@H]3CN3CCCC3)c2)cc(C(=O)N2CCC[C@H]2CN2CCCC2)n1 [Compound 15],< 50 µM
4,O=C(NC/C=C/c1ccccc1)c1cc(-c2cc(C(=O)NC(C(=O)O)C3CCCCC3)nc(C(=O)N3CCCC3CN3CCCC3)c2)cc(C(=O)N2CCCC2CN2CCCC2)n1 (stereo not shown) [Compound 16],50 to 125 µM
5,CCC(C)C(NC(=O)c1cc(-c2cc(C(=O)NCc3ccccc3Br)nc(C(=O)N3CCCC3CN(C)C)c2)cc(C(=O)N2CCCC2CN(C)C)n1)C(=O)O (stereo not shown) [Compound 17],50 to 125 µM
6,CCC(C)C(NC(=O)c1cc(-c2cc(C(=O)NCc3ccccc3Br)nc(C(=O)N3CCCC3CN(C)C3CCCCC3)c2)cc(C(=O)N2CCCC2CN(C)C2CCCCC2)n1)C(=O)O (stereo not shown) [Compound 18],50 to 125 µM
7,CCC(C)C(NC(=O)c1cc(-c2cc(C(=O)NCc3ccccc3Br)nc(C(=O)N3CCCC3CN3CCCCC3)c2)cc(C(=O)N2CCCC2CN2CCCCC2)n1)C(=O)O (stereo not shown) [Compound 19],50 to 125 µM
8,COC(=O)[C@@H](NC(=O)c1cc(-c2cc(C(=O)NCCCc3ccccc3)nc(C(=O)N3CCC[C@H]3CN3CCCC3)c2)cc(C(=O)N2CCC[C@H]2CN2CCCC2)n1)C1CCCCC1 [Compound 20],50 to 125 µM
9,CC(C)(C)[C@H](NC(=O)c1cc(-c2cc(C(=O)NCCCc3ccccc3)nc(C(=O)N3CCC[C@H]3CN3CCCC3)c2)cc(C(=O)N2CCC[C@H]2CN2CCCC2)n1)C(=O)O [Compound 21],50 to 125 µM

# Same assay, conditions: compounds 'shown to have' the IC50 range; assay of Example 7, top concentration 125 μM; read-out: IC50 for CD40:CD154 binding interruption
row,SMILES,IC50
1,"O=C(Nc1cccc(S(=O)(=O)Nc2cc3ccccc3cc2C(=O)O)c1)Nc1cccc(S(=O)(=O)Nc2cc3ccccc3cc2C(=O)O)c1 [BIO-002108-00, reference compound]",< 50 µM
2,CCC(C)C(NC(=O)c1cc(-c2cc(C(=O)NCc3ccccc3Br)nc(C(=O)N3CCCC3CN3CCCC3)c2)cc(C(=O)N2CCCC2CN2CCCC2)n1)C(=O)O (stereo not shown) [Compound 1],50 to 125 µM
3,CCC(C)C(NC(=O)c1cc(-c2cc(C(=O)NCc3cccc(OC)c3OC)nc(C(=O)N3CCCC3CN3CCCC3)c2)cc(C(=O)N2CCCC2CN2CCCC2)n1)C(=O)O (stereo not shown) [Compound 2],> 125 µM
4,CCC(C)C(NC(=O)c1cc(-c2cc(C(=O)NC(C)(C)Cc3ccc(F)cc3)nc(C(=O)N3CCCC3CN3CCCC3)c2)cc(C(=O)N2CCCC2CN2CCCC2)n1)C(=O)O (stereo not shown) [Compound 3],> 125 µM
5,O=C(NCCCc1ccccc1)c1cc(-c2cc(C(=O)NC(C(=O)O)C3CCCCC3)nc(C(=O)N3CCCC3CN3CCCC3)c2)cc(C(=O)N2CCCC2CN2CCCC2)n1 (stereo not shown) [Compound 4],< 50 µM
6,O=C(NCCC(c1ccccc1)c1ccccc1)c1cc(-c2cc(C(=O)N[C@H](C(=O)O)C3CCCCC3)nc(C(=O)N3CCC[C@H]3CN3CCCC3)c2)cc(C(=O)N2CCC[C@H]2CN2CCCC2)n1 [Compound 5],< 50 µM
7,O=C(NCc1cccc(-c2ccccc2)c1)c1cc(-c2cc(C(=O)N[C@H](C(=O)O)C3CCCCC3)nc(C(=O)N3CCC[C@H]3CN3CCCC3)c2)cc(C(=O)N2CCC[C@H]2CN2CCCC2)n1 [Compound 6],< 50 µM
8,O=C(NCCCc1ccc([N+](=O)[O-])cc1)c1cc(-c2cc(C(=O)NC(C(=O)O)C3CCCCC3)nc(C(=O)N3CCCC3CN3CCCC3)c2)cc(C(=O)N2CCCC2CN2CCCC2)n1 (stereo not shown) [Compound 7],50 to 125 µM
9,Nc1ccc(CCCNC(=O)c2cc(-c3cc(C(=O)NC(C(=O)O)C4CCCCC4)nc(C(=O)N4CCCC4CN4CCCC4)c3)cc(C(=O)N3CCCC3CN3CCCC3)n2)cc1 (stereo not shown) [Compound 8],50 to 125 µM
10,Nc1cccc(C(CCNC(=O)c2cc(-c3cc(C(=O)NC(C(=O)O)C4CCCCC4)nc(C(=O)N4CCCC4CN4CCCC4)c3)cc(C(=O)N3CCCC3CN3CCCC3)n2)c2ccccc2)c1 (stereo not shown) [Compound 10],50 to 125 µM
11,O=C(NCCC(c1ccccc1)c1ccc([N+](=O)[O-])cc1)c1cc(-c2cc(C(=O)NC(C(=O)O)C3CCCCC3)nc(C(=O)N3CCCC3CN3CCCC3)c2)cc(C(=O)N2CCCC2CN2CCCC2)n1 (stereo not shown) [Compound 11],< 50 µM
12,O=C(NCc1ccc2ccccc2c1)c1cc(-c2cc(C(=O)N[C@H](C(=O)O)C3CCCCC3)nc(C(=O)N3CCC[C@H]3CN3CCCC3)c2)cc(C(=O)N2CCC[C@H]2CN2CCCC2)n1 [Compound 13],50 to 125 µM
